Measurements published in publication PMC4198181, “Gold(I) Complexes of 9-Deazahypoxanthine as Selective Antitumor and Anti-Inflammatory Agents” (PLoS ONE, 2014).

Experiments:
[1] = Interactions with L-cysteine and reduced glutathione by ESI+ MS; assay type: physicochemical; settings: 20 µM complex, 290 µM cysteine, 6 µM glutathione, methanol/water 1:1
Description: The interactions of selected gold(I) complexes 2 and 4, involving the isopropyloxy and benzyloxy substituent on C6 of 9-deazapurine, with the sulfur-containing biomolecules (i.e. L-cysteine and reduced glutathione) were studied by ESI+ mass spectrometry (ESI+ MS). The experiments were carried out using a Thermo Scientific LTQ Fleet Ion-Trap mass spectrometer, in positive ionization mode. The reactions of the representative complexes 2 and 4 were performed in methanol/water mixture (1∶1, v/v) containing the physiological concentrations of L-cysteine and glutathione (at the final concentrations of 290 µM, and 6 µM [63], respectively). The reference system consisted of the solutions of complexes (20 µM) in methanol/water mixture (1∶1, v/v). The flow injection analysis (FIA) method was utilized to introduce the reaction system (5 µL spikes) into the mass spectrometer and pure acetonitrile was used as a mobile phase. The ESI-source was set-up as follows: source voltage (5 kV), the vaporizer temperature (160°C), the capillary temperature (250°C), the sheath gas flow (30 L/min), and auxiliary gas flow rate (10 L/min). The system was calibrated as stated in the manufactured specifications and no further tuning was needed.

[2] = tested on: human cancer cell lines (MCF7, HOS, A549, G361, HeLa, A2780, A2780R, 22Rv1); experiment: MTT in vitro cytotoxicity, summary over the panel of human cancer cell lines; assay type: cell-based; settings: on the MCF7 and HOS cell lines
Description: In vitro cytotoxic activity was determined by the MTT assay in human breast adenocarcinoma (MCF7; ECACC no. 86012803), human osteosarcoma (HOS; ECACC no. 87070202), lung carcinoma (A549; ECACC no. 86012804), malignant melanoma (G361; ECACC no. 88030401), cervix epitheloid carcinoma (HeLa; ECACC no. 93021013), ovarian carcinoma (A2780; ECACC no. 93112519), cisplatin-resistant ovarian carcinoma (A2780R; ECACC no. 93112517) and prostate carcinoma (22Rv1; ECACC no 105092802) cancer cell lines, purchased from European Collection of Cell Cultures (ECACC). The cells were cultured according to the ECACC instructions and they were maintained at 37°C and 5% CO2 in a humidified incubator. The primary culture of human hepatocytes (HEP220, batch number HEP220819) was obtained from Biopredic International (France). The culture medium was Williams and HAM's F-12 (1∶1) supplemented with penicillin, streptomycin, ascorbic acid, linoleic acid, holo-transferin, ethanolamine, glucagon, insulin, dexamethasone, pyruvate, glucose, glutamine, amphotericin. The medium was enriched for plating with 2% foetal calf serum (v/v). The medium was exchanged for a serum-free medium the day after and the culture was stabilized for additional 24 h. Thereafter, the cells were ready for treatments. The cultures were maintained at 37°C and 5% CO2 in a humidified incubator. The cells were treated with complexes 1–5 (at the concentration levels of 0.01, 0.1, 1.0, 5.0, 25.0, and 50.0 µM), starting compounds e.g. HL1–5, AuCl, and cisplatin (applied up to 50 µM) for 24 h, using multi-well culture plates of 96 wells. […]
The cytotoxicity data were expressed as the percentage of viability, where 100% represented the treatments with vehicle (0.1% DMF or 0.1% DMSO). […] The IC50 values were calculated from viability curves. […] The significance of the differences between the results was assessed by the ANOVA analysis with p<0.05 considered to be significant (QC Expert 3.2, Statistical software, TriloByte Ltd., Pardubice, Czech Republic).

CC(C)Oc1ncnc2cc[n]([Au])c12.c1ccc(P(c2ccccc2)c2ccccc2)cc1 [complex 2, [Au(L2)(PPh3)]]
time within which interaction intermediates with cysteine/glutathione were detected (N-ligand exchange) [1]: ≤ 1 h | times more efficient than cisplatin [2]: at least 20 times
